Test results from publication PMC9214538, “The M1 muscarinic receptor is present in situ as a ligand-regulated mixture of monomers and oligomeric complexes” (Proceedings of the National Academy of Sciences of the …, 2022).
Like-named read-outs stand apart in the source and are kept apart here. Numbered stars: 1 amine (or outer) side, 2 acyl side, 3 side chain; on linkers, the order of the positions; unused ones are H or OH. Bridge positions count the residues as written; N and C are the ends. Square brackets hold non-standard residues; d marks the D form. Peptide text beside a SMILES is read from it. * marks the point of attachment. Leu(3R-OH,Nα-propionyl) = CCC(=O)N[C@H](C(=O)*)[C@H](O)C(C)C; X1 = CC(C)[C@@H](O[*:3])[C@H](N[*:1])C(=O)[*:2]; NMeT = CN[C@H](C(=O)O)[C@@H](C)O; dPhLac = O=C(O)[C@H](O)Cc1ccccc1; NMeA = CN[C@@H](C)C(=O)O; NMeDha = C=C(NC)C(=O)O

How the values were obtained:
[1] = system: hippocampal and cortical neurons; assay: Ca^2+ imaging (Fura-8 AM) in primary neuronal cultures; assay type: cell-based, mice; conditions: for elevation of [Ca^2+] / percentage of tested cells that responded to carbachol: 300 μM carbachol
Method: Primary neuronal cells were plated onto precoated cover slides at a density of 5 × 10^5 and maintained at 37 °C in a 5% CO2 humidified atmosphere. On DIV7, cells were loaded with the calcium-sensitive dye Fura-8 AM; 3 µM Fura-8 was added to normal growth medium and the cells incubated at 37 °C for 30 min. Cells were then washed and incubated with HBSS with or without 1 µM FR900359 for 30 min. Coverslips were then placed into a microscope chamber containing HBSS and assays were performed as described previously ([46]).

chemokine CXCR4 = conditions: ref [10], [41]; cited from earlier work
muscarinic receptor = assay: [^3H]NMS binding on intact primary neuronal cells; set-up: species or system mice; conditions: read-out: dissociation constant (Kd) of the radioligand
Method: Primary neuronal cells were seeded at a density of 5 × 10^4 cells/well onto a 96-well plate and maintained at 37 °C in a 5% CO2 humidified atmosphere. On the sixth day in vitro, cells were washed twice with binding buffer (110 mM NaCl, 5.4 mM KCl, 1.8 mM CaCl2, 1 mM MgSO4, 25 mM glucose, 20 mM 4-(2-hydroxyethyl)-1-piperazineethanesulfonic acid [HEPES], 58 mM sucrose). A range of [^3H]NMS concentrations (between 0 and 10 nM) were added to appropriate wells containing buffer or 10-µM atropine to determine total and nonspecific binding in 100 µL of final-volume binding buffer. Plates were incubated for 2 h at 37 °C and the reactions were terminated by removal of the binding mixture followed by 3 × 200 µL/well ice-cold NaCl 0.9% washes. We added 100 µL/well of Microscint-20, and the plates were sealed before overnight incubation at room temperature on a rapidly shaking platform. Bound ligand was determined using a Packard Topcount NXT (Perkin-Elmer Life Sciences).

[2] = molecular target: muscarinic receptor (total muscarinic-receptor subtypes); assay: [^3H]NMS saturation binding on membrane preparations of cortex and hippocampus; set-up: species or system mice; conditions: mean ± SD, five animals
From the text: We performed [^3H]NMS-binding studies on membrane preparations as described previously ([20]).

D3 dopamine receptor = system: D3 dopamine receptor; set-up: method as in PMID 28522847; conditions: ref [40]; cited from earlier work

## C=C1C(=O)N[C@@H](C)C(=O)N(C)[C@@H](C)C(=O)N[C@@H]([C@H](OC(=O)[C@@H](NC(=O)CC)[C@H](O)C(C)C)C(C)C)C(=O)N(C)[C@@H]([C@@H](C)OC)C(=O)O[C@H](C(C)C)[C@H](NC(C)=O)C(=O)O[C@H](Cc2ccccc2)C(=O)N1C [FR900359] (Ac-[X1][dPhLac][NMeDha]A[NMeA][X1](Leu(3R-OH,Nα-propionyl))[NMeT](Me); ester 1-C)
[1]; pretreatment with 1 µM FR900359 for 30 min, P < 0.001
  effect on carbachol-induced elevation of [Ca^2+]: prevented

## CC1(C)CN2C(CSC(=NC3CCCCC3)NC3CCCCC3)=CSC2=N1 [IT1t]
Chemokine CXCR4
  effect on dimers of CXCR4: disrupt dimers of the chemokine CXCR4

## C[N+](C)(C)CCOC(N)=O [carbachol]
[1]; cells from M1-KO mice
  elevation of [Ca^2+]: did not promote a large increase of [Ca^2+]
[1]; neuronal cultures from WT and homozygous M1-mEGFP mice
  elevation of [Ca^2+]: promoted elevation of [Ca^2+]
[1]; neurons from M1-mEGFP mice, mean ± SD
  percentage of tested cells that responded to carbachol: 36.7% ± 4.0%
[1]; neurons from WT mice
  percentage of tested cells that responded to carbachol: 26.8% ± 3.4%

## O=C(CCCN1CCC2(CC1)C(=O)NCN2c1ccccc1)c1ccc(F)cc1 [spiperone]
D3 dopamine receptor
  effect on dimers of the D3 dopamine receptor: destabilize dimers of the D3 dopamine receptor

## O=C(CCCN1CCC(O)(c2ccc(Cl)cc2)CC1)c1ccc(F)cc1 [haloperidol]
D3 dopamine receptor
  effect on dimers of the D3 dopamine receptor: destabilize dimers of the D3 dopamine receptor

## Nc1ncnc2c1ncn2[C@@H]1O[C@H](COP(=O)(O)OP(=O)(O)OP(=O)(O)O)[C@@H](O)[C@H]1O [adenosine triphosphate]
[1]; 10 μM ATP added after carbachol, cells from M1-KO mice
  elevation of intracellular [Ca^2+]: able to elicit rapid elevation of intracellular [Ca^2+]
